Assay results taken from ChEMBL document CHEMBL5120839, “Design, synthesis and antibacterial activity of novel pleuromutilin derivatives with thieno[2,3-d]pyrimidine substitution” (Eur J Med Chem, 2022).
≈ marks a conversion by molar mass, not a printed value.

How the values were obtained:
Assay type in all cases: functional
Staphylococcus aureus [1] = experiment: Antibacterial activity against Staphylococcus aureus assessed as diameter of the inhibition circle at 1 mg/ml incubated for 48 hrs
Staphylococcus aureus [2] = experiment: Antibacterial activity against Staphylococcus aureus assessed as inhibition of bacterial growth incubated for 24 hrs by microbroth two-fold dilution method
Streptococcus agalactiae [3] = experiment: Antibacterial activity against Streptococcus agalactiae assessed as inhibition of bacterial growth incubated for 24 hrs by microbroth two-fold dilution method
Escherichia coli [4] = experiment: Antibacterial activity against Escherichia coli assessed as inhibition of bacterial growth incubated for 24 hrs by microbroth two-fold dilution method
Staphylococcus aureus [5] = experiment: Antibacterial activity against Methicillin-resistant Staphylococcus aureus BNCC 337371 assessed as inhibition of bacterial growth incubated for 24 hrs by microbroth two-fold dilution method
Staphylococcus aureus [6] = experiment: Antibacterial activity against Staphylococcus aureus assessed as bacterial growth by measuring optical density incubated for 12 hrs by real time growth curve analysis
Streptococcus agalactiae [7] = experiment: Antibacterial activity against Streptococcus agalactiae assessed as bacterial growth by measuring optical density at 0.5 times MIC incubated for 12 hrs by real time growth curve analysis
Escherichia coli [8] = experiment: Antibacterial activity against Escherichia coli assessed as bacterial growth by measuring optical density at 0.5 times MIC incubated for 12 hrs by real time growth curve analysis
Streptococcus agalactiae [9] = experiment: Antibacterial activity against Streptococcus agalactiae assessed as bacterial growth by measuring optical density at 1 to 2 times MIC incubated for 12 hrs by real time growth curve analysis
Escherichia coli [10] = experiment: Antibacterial activity against Escherichia coli assessed as bacterial growth by measuring optical density at 1 to 2 times MIC incubated for 12 hrs by real time growth curve analysis

C=C[C@]1(C)C[C@@H](OC(=O)CSc2ncc(C)c(NCCO)n2)[C@]2(C)[C@H](C)CC[C@]3(CCC(=O)[C@H]32)[C@@H](C)[C@@H]1O
inhibition zone diameter (Staphylococcus aureus [1]): 27.6 mm
MIC (Staphylococcus aureus [2]): 0.244 µg/mL (≈ 0.447 µM)
MIC (Streptococcus agalactiae [3]): 0.122 µg/mL (≈ 0.224 µM)
MIC (Escherichia coli [4]): 3.91 µg/mL (≈ 7.16 µM)

C=C[C@]1(C)C[C@@H](OC(=O)CSc2nc(N/N=C/c3ccc(OC)cc3O)c3ccsc3n2)[C@]2(C)[C@H](C)CC[C@]3(CCC(=O)[C@H]32)[C@@H](C)[C@@H]1O
inhibition zone diameter (Staphylococcus aureus [1]): 23 mm
MIC (Staphylococcus aureus [2]): 7.81 µg/mL (≈ 11.3 µM)
MIC (Streptococcus agalactiae [3]): 0.244 µg/mL (≈ 0.352 µM)
MIC (Escherichia coli [4]): > 15.6 µg/mL

C=C[C@]1(C)C[C@@H](OC(=O)CS[C@@H]2C[C@H]3CC[C@@H](C2)N3C)[C@]2(C)[C@H](C)CC[C@]3(CCC(=O)[C@H]32)[C@@H](C)[C@@H]1O [RETAPAMULIN]
inhibition zone diameter (Staphylococcus aureus [1]): 30.4 mm
MIC (Staphylococcus aureus [2]): 0.122 µg/mL (≈ 0.236 µM)
MIC (Streptococcus agalactiae [3]): 0.0305 µg/mL (≈ 0.0589 µM)
MIC (Escherichia coli [4]): 1.95 µg/mL (≈ 3.77 µM)
MIC (Staphylococcus aureus [5]): 0.0621 µg/mL (≈ 0.12 µM)

C=C[C@]1(C)C[C@@H](OC(=O)CSc2nc(N(C)C)c3ccsc3n2)[C@]2(C)[C@H](C)CC[C@]3(CCC(=O)[C@H]32)[C@@H](C)[C@@H]1O
inhibition zone diameter (Staphylococcus aureus [1]): 21.8 mm
MIC (Staphylococcus aureus [2]): 3.91 µg/mL (≈ 6.83 µM)
MIC (Streptococcus agalactiae [3]): 1.95 µg/mL (≈ 3.42 µM)
MIC (Escherichia coli [4]): 15.6 µg/mL (≈ 27.3 µM)

C=C[C@]1(C)C[C@@H](OC(=O)CSc2nc(NCCO)c3ccccc3n2)[C@]2(C)[C@H](C)CC[C@]3(CCC(=O)[C@H]32)[C@@H](C)[C@@H]1O
OD (Staphylococcus aureus [6]): <0.3
inhibition zone diameter (Staphylococcus aureus [1]): 30.5 mm
MIC (Staphylococcus aureus [2]): 0.0153 µg/mL (≈ 0.0263 µM)
MIC (Streptococcus agalactiae [3]): 0.0153 µg/mL (≈ 0.0263 µM)
MIC (Escherichia coli [4]): 0.03 µg/mL (≈ 0.0516 µM)
MIC (Staphylococcus aureus [5]): 0.0305 µg/mL (≈ 0.0524 µM)
OD (Streptococcus agalactiae [7]): <0.3
OD (Escherichia coli [8]): <0.3
OD (Streptococcus agalactiae [9]): 0.1
OD (Escherichia coli [10]): 0.1

C=C[C@]1(C)C[C@@H](OC(=O)CSc2nc(N/N=C/c3ccc(F)cc3F)c3ccsc3n2)[C@]2(C)[C@H](C)CC[C@]3(CCC(=O)[C@H]32)[C@@H](C)[C@@H]1O
inhibition zone diameter (Staphylococcus aureus [1]): 22.8 mm
MIC (Staphylococcus aureus [2]): 7.81 µg/mL (≈ 11.4 µM)
MIC (Streptococcus agalactiae [3]): 0.061 µg/mL (≈ 0.0893 µM)
MIC (Escherichia coli [4]): > 15.6 µg/mL

C=C[C@]1(C)C[C@@H](OC(=O)CSc2nc(N3CCOCC3)c3ccsc3n2)[C@]2(C)[C@H](C)CC[C@]3(CCC(=O)[C@H]32)[C@@H](C)[C@@H]1O
inhibition zone diameter (Staphylococcus aureus [1]): 21.6 mm
MIC (Staphylococcus aureus [2]): 0.122 µg/mL (≈ 0.199 µM)
MIC (Streptococcus agalactiae [3]): 0.061 µg/mL (≈ 0.0994 µM)
MIC (Escherichia coli [4]): 1.95 µg/mL (≈ 3.18 µM)

C=C[C@]1(C)C[C@@H](OC(=O)CSc2nccc(NCCO)n2)[C@]2(C)[C@H](C)CC[C@]3(CCC(=O)[C@H]32)[C@@H](C)[C@@H]1O
Activity (Staphylococcus aureus [1]): 27.3 mM
MIC (Staphylococcus aureus [2]): 0.122 µg/mL (≈ 0.23 µM)
MIC (Streptococcus agalactiae [3]): 0.488 µg/mL (≈ 0.918 µM)
MIC (Escherichia coli [4]): 3.91 µg/mL (≈ 7.35 µM)

C=C[C@]1(C)C[C@@H](OC(=O)CSc2nc(N/N=C/c3ccc(F)cc3)c3ccsc3n2)[C@]2(C)[C@H](C)CC[C@]3(CCC(=O)[C@H]32)[C@@H](C)[C@@H]1O
inhibition zone diameter (Staphylococcus aureus [1]): 20.2 mm
MIC (Staphylococcus aureus [2]): 7.81 µg/mL (≈ 11.7 µM)
MIC (Streptococcus agalactiae [3]): 0.244 µg/mL (≈ 0.367 µM)
MIC (Escherichia coli [4]): 15.6 µg/mL (≈ 23.5 µM)

C=C[C@]1(C)C[C@@H](OC(=O)CSc2nc(N(C)CCN(C)C)c3ccsc3n2)[C@]2(C)[C@H](C)CC[C@]3(CCC(=O)[C@H]32)[C@@H](C)[C@@H]1O
inhibition zone diameter (Staphylococcus aureus [1]): 29.4 mm
MIC (Staphylococcus aureus [2]): 0.0019 µg/mL (≈ 0.00302 µM)
MIC (Streptococcus agalactiae [3]): 0.244 µg/mL (≈ 0.388 µM)
MIC (Escherichia coli [4]): 0.244 µg/mL (≈ 0.388 µM)
MIC (Staphylococcus aureus [5]): 0.244 µg/mL (≈ 0.388 µM)
OD (Streptococcus agalactiae [7]): <0.3
OD (Escherichia coli [8]): <0.3
OD (Streptococcus agalactiae [9]): 0.1
OD (Escherichia coli [10]): 0.1

C=C[C@]1(C)C[C@@H](OC(=O)CSc2nccc(N3CCN(CC)CC3)n2)[C@]2(C)[C@H](C)CC[C@]3(CCC(=O)[C@H]32)[C@@H](C)[C@@H]1O
inhibition zone diameter (Staphylococcus aureus [1]): 28.6 mm
MIC (Staphylococcus aureus [2]): 0.122 µg/mL (≈ 0.209 µM)
MIC (Streptococcus agalactiae [3]): 0.122 µg/mL (≈ 0.209 µM)
MIC (Escherichia coli [4]): 1.95 µg/mL (≈ 3.34 µM)

C=C[C@]1(C)C[C@@H](OC(=O)CSc2nc(N/N=C/c3ccc(OC)cc3)c3ccsc3n2)[C@]2(C)[C@H](C)CC[C@]3(CCC(=O)[C@H]32)[C@@H](C)[C@@H]1O
inhibition zone diameter (Staphylococcus aureus [1]): 18.8 mm
MIC (Staphylococcus aureus [2]): 7.81 µg/mL (≈ 11.5 µM)
MIC (Streptococcus agalactiae [3]): 0.0305 µg/mL (≈ 0.0451 µM)
MIC (Escherichia coli [4]): > 15.6 µg/mL

C=C[C@]1(C)C[C@@H](OC(=O)CSc2nc(NCCO)cc(C(F)(F)F)n2)[C@]2(C)[C@H](C)CC[C@]3(CCC(=O)[C@H]32)[C@@H](C)[C@@H]1O
inhibition zone diameter (Staphylococcus aureus [1]): 29 mm
MIC (Staphylococcus aureus [2]): 0.488 µg/mL (≈ 0.814 µM)
MIC (Streptococcus agalactiae [3]): 0.488 µg/mL (≈ 0.814 µM)
MIC (Escherichia coli [4]): 0.488 µg/mL (≈ 0.814 µM)

C=C[C@]1(C)C[C@@H](OC(=O)CSc2nc(N3CCN(CC)CC3)cc(C(F)(F)F)n2)[C@]2(C)[C@H](C)CC[C@]3(CCC(=O)[C@H]32)[C@@H](C)[C@@H]1O
inhibition zone diameter (Staphylococcus aureus [1]): 21 mm
MIC (Staphylococcus aureus [2]): 0.488 µg/mL (≈ 0.748 µM)
MIC (Streptococcus agalactiae [3]): 0.244 µg/mL (≈ 0.374 µM)
MIC (Escherichia coli [4]): 1.95 µg/mL (≈ 2.99 µM)

C=C[C@]1(C)C[C@@H](OC(=O)CSc2nc(N3CCN(CC)CC3)c3c(C)csc3n2)[C@]2(C)[C@H](C)CC[C@]3(CCC(=O)[C@H]32)[C@@H](C)[C@@H]1O
inhibition zone diameter (Staphylococcus aureus [1]): 31.2 mm
MIC (Staphylococcus aureus [2]): 0.244 µg/mL (≈ 0.373 µM)
MIC (Streptococcus agalactiae [3]): 0.0076 µg/mL (≈ 0.0116 µM)
MIC (Escherichia coli [4]): 0.977 µg/mL (≈ 1.49 µM)

C=C[C@]1(C)C[C@@H](OC(=O)CSc2nc(N3CCC(C)CC3)c3ccsc3n2)[C@]2(C)[C@H](C)CC[C@]3(CCC(=O)[C@H]32)[C@@H](C)[C@@H]1O
inhibition zone diameter (Staphylococcus aureus [1]): 10.9 mm
MIC (Staphylococcus aureus [2]): 15.6 µg/mL (≈ 25 µM)
MIC (Streptococcus agalactiae [3]): 7.81 µg/mL (≈ 12.5 µM)
MIC (Escherichia coli [4]): > 15.6 µg/mL
